Patent US20240254123A1, “PYRIDOPYRIMIDINE DERIVATIVES USEFUL AS WEE1 KINASE INHIBITORS” (APREA THERAPEUTICS, INC., priority 2021, published 2024)
pIC50: −log10 of the molar value. Where “and” joins values, the source holds several entries; their conditions need not be identical. Equal entries are not always repeated.

Columns and labels:
WEE1 [1] = molecular target: T1, WEE1 (Homo sapiens, UniProt P30291); experiment: Guava flow cytometry cell cycle assay (DNA content per cell, propidium iodide); assay type: cell-based; conditions: for WEE1 Guava MEC Guava MEC: single agent, unit assumed; for WEE1 Guava MEC with 20 nM GEM: in µM (unit assumed)
T1 construct: Drug treated cells are fixed and stained with propidium iodide (PI); endogenous in cells
From the text: In this example, compounds described herein were subject to an assay that detects changes the phases of the cell cycle upon drug treatment, permitting the identification of drugs that affect cell proliferation in a specific manner. For example, problematic DNA replication causes the percentage of cells in S phase to increase. Thus, quantification of cells in S phase permits identification of drugs that cause defects in DNA replication. Similarly, drugs that selectively defects in progression through G2/M can also be identified. Moreover, synergy between assayed drugs and known cell cycle regulators can be determined, as exemplified by the effect of ATR inhibition when combined with agents that slow DNA replication, which causes replication fork collapse into DSBs and complete loss of DNA synthesis. Two novel drugs can also be combined to quantify synergistic effects on specific cell cycle phases.
The assay operates by the quantification of DNA content per cell by flow cytometry. Cells are assessed for effects on cell cycle using a Guava EasyCyte™ flow cytometer (Austin, TX). Drug treated cells are fixed and stained with propidium iodide (PI) and resuspended in phosphate-buffered saline containing the PI staining buffer. During flow cytometry, PI is excited at 528 nm and is detected in a 610/20 bandpass. Readout of the […] is optical density of DNA-staining dye. The assay generates a histogram showing count of cells by amount of DNA, which is an indicator of place in the cell cycle. This rapid assay detects relative changes in the cell cycle upon drug treatment upon comparison vehicle-treated and single-agent controls for detection of combinatorial interactions. See, Table 4.

WEE1 [2] = molecular target: T1, WEE1; experiment: in vitro enzymatic inhibitory activity, WEE1 kinase, 10-dose IC50 mode; assay type: biochemical; conditions: 10 μM ATP
Procedure: Compounds were tested against two kinases.
Data includes raw data, % Enzyme activity (relative to DMSO controls) and curve fits.

T1 sequence (P30291 whole entry): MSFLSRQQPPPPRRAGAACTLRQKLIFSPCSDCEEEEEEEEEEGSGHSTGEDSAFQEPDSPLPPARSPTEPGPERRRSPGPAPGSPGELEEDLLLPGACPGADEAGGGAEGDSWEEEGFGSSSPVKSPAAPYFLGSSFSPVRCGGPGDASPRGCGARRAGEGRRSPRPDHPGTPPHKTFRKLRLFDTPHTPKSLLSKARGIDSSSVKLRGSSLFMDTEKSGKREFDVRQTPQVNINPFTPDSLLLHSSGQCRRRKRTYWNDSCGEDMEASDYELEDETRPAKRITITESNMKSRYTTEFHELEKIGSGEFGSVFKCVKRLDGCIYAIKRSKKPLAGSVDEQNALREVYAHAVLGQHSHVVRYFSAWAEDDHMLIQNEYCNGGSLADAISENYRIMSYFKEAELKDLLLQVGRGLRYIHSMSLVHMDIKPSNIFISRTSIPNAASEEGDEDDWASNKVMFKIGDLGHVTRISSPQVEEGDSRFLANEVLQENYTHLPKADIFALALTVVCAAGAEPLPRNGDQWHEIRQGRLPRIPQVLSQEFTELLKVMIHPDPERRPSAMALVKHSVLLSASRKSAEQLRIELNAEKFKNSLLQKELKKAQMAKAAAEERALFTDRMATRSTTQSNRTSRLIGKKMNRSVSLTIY

Row | SMILES | WEE1 Guava MEC Guava MEC (WEE1 [1]) | WEE1 Guava MEC with 20 nM GEM (WEE1 [1]) | pIC50 (WEE1 [2])
1 | CN1CCC(n2cc(Nc3ncc4c(=O)n(-c5c(Cl)cccc5Cl)cc(Br)c4n3)cn2)CC1 [Compound P1, 8-bromo-6-(2,6-dichlorophenyl)-2-[[1-(1-methyl-4-piperidyl)pyrazol-4-yl]amino]pyrido[4,3-d]pyrimidin-5-one] | 0.625 µM | 0.156 | 7.39
2 | Cc1cn(-c2c(Cl)cccc2Cl)c(=O)c2cnc(Nc3cnn(C4CCN(C)CC4)c3)nc12 [Compound P2, 6-(2,6-dichlorophenyl)-8-methyl-2-[[1-(1-methyl-4-piperidyl)pyrazol-4-yl]amino]pyrido[4,3-d]pyrimidin-5-one] | 5 µM | 1.25 | –
3 | O=c1c2cnc(Nc3cnn(C4CCNCC4)c3)nc2c(C2CC2)cn1-c1c(Cl)cccc1Cl [Compound P3, 8-cyclopropyl-6-(2,6-dichlorophenyl)-2-[[1-(4-piperidyl)pyrazol-4-yl]amino]pyrido[4,3-d]pyrimidin-5-one] | 2.5 µM | 0.625 | –
4 | CCc1cn(-c2c(Cl)cccc2Cl)c(=O)c2cnc(Nc3cnn(C4CCNCC4)c3)nc12 [Compound P4, 6-(2,6-dichlorophenyl)-8-ethyl-2-[[1-(4-piperidyl)pyrazol-4-yl]amino]pyrido[4,3-d]pyrimidin-5-one] | 1.25 µM | 0.625 | 7.33
5 | CCc1cn(-c2c(Cl)cccc2Cl)c(=O)c2cnc(Nc3cnn(C4CCN(C)CC4)c3)nc12 [Compound P5, 6-(2,6-dichlorophenyl)-8-ethyl-2-((1-(1-methylpiperidin-4-yl)-1H-pyrazol-4-yl)amino)pyrido[4,3-d]pyrimidin-5(6H)-one] | > 5 µM | 1.25 | –
6 | C=C(C)c1cn(-c2c(Cl)cccc2Cl)c(=O)c2cnc(Nc3cnn(C4CCNCC4)c3)nc12 [Compound P6, 6-(2,6-dichlorophenyl)-2-((1-(piperidin-4-yl)-1H-pyrazol-4-yl)amino)-8-(prop-1-en-2-yl)pyrido[4,3-d]pyrimidin-5(6H)-one] | 5 µM | 1.25 | –
7 | C=C(C)c1cn(-c2c(Cl)cccc2Cl)c(=O)c2cnc(Nc3cnn(C4CCN(C)CC4)c3)nc12 [Compound P7, 6-(2,6-dichlorophenyl)-8-isopropenyl-2-[[1-(1-methyl-4-piperidyl)pyrazol-4-yl]amino]pyrido[4,3-d]pyrimidin-5-one] | 2.5 µM | 1.25 | –
8 | CC(C)c1cn(-c2c(Cl)cccc2Cl)c(=O)c2cnc(Nc3cnn(C4CCNCC4)c3)nc12 [Compound P8, 6-(2,6-dichlorophenyl)-8-isopropyl-2-[[1-(4-piperidyl)pyrazol-4-yl]amino]pyrido[4,3-d]pyrimidin-5-one] | 5 µM | 1.25 | –
9 | CC(C)c1cn(-c2c(Cl)cccc2Cl)c(=O)c2cnc(Nc3cnn(C4CCN(C)CC4)c3)nc12 [Compound P9, 6-(2,6-dichlorophenyl)-8-isopropyl-2-[[1-(1-methyl-4-piperidyl)pyrazol-4-yl]amino]pyrido[4,3-d]pyrimidin-5-one] | 5 µM | 1.25 | –
10 | O=c1c2cnc(Nc3ccc4c(c3)CNCC4)nc2c(Br)cn1-c1c(Cl)cccc1Cl [Compound P10, 8-bromo-6-(2,6-dichlorophenyl)-2-(1,2,3,4-tetrahydroisoquinolin-7-ylamino)pyrido[4,3-d]pyrimidin-5-one] | 0.313 µM | 0.156 | 7.57
11 | CN1CCCC(n2cc(Nc3ncc4c(=O)n(-c5c(Cl)cccc5Cl)cc(Br)c4n3)cn2)C1 (centres unmarked) [Compound P12, 8-bromo-6-(2,6-dichlorophenyl)-2-[[1-(1-methyl-3-piperidyl)pyrazol-4-yl]amino]pyrido[4,3-d]pyrimidin-5-one] | > 1.25 µM | 0.625 | –
12 | O=c1c2cnc(Nc3cnn(C4CCCNC4)c3)nc2c(Br)cn1-c1c(Cl)cccc1Cl (centres unmarked) [Compound P13, 8-bromo-6-(2,6-dichlorophenyl)-2-[[1-(3-piperidyl)pyrazol-4-yl]amino]pyrido[4,3-d]pyrimidin-5-one] | 0.625 µM | 0.313 | –
13 | Cc1ccc(Cl)c(-n2cc(Br)c3nc(Nc4cnn(C5CCNCC5)c4)ncc3c2=O)c1Cl [Compound P14, 8-bromo-6-(2,6-dichloro-3-methyl-phenyl)-2-[[1-(4-piperidyl)pyrazol-4-yl]amino]pyrido[4,3-d]pyrimidin-5-one] | > 5 µM | 1.25 | –
14 | Cc1ccc(Cl)c(-n2cc(Br)c3nc(Nc4cnn(C5CCN(C)CC5)c4)ncc3c2=O)c1Cl [Compound P15, 8-bromo-6-(2,6-dichloro-3-methyl-phenyl)-2-[[1-(1-methyl-4-piperidyl)pyrazol-4-yl]amino]pyrido[4,3-d]pyrimidin-5-one] | 5 µM | 1.25 | –
15 | Cc1cc(Cl)c(-n2cc(Br)c3nc(Nc4cnn(C5CCNCC5)c4)ncc3c2=O)c(Cl)c1 [Compound P16, 8-bromo-6-(2,6-dichloro-4-methyl-phenyl)-2-[[1-(4-piperidyl)pyrazol-4-yl]amino]pyrido[4,3-d]pyrimidin-5-one] | 2.5 µM | 0.625 | –
16 | Cc1cc(Cl)c(-n2cc(Br)c3nc(Nc4cnn(C5CCN(C)CC5)c4)ncc3c2=O)c(Cl)c1 [Compound P17, 8-bromo-6-(2,6-dichloro-4-methyl-phenyl)-2-[[1-(1-methyl-4-piperidyl)pyrazol-4-yl]amino]pyrido[4,3-d]pyrimidin-5-one] | 2.5 µM | 0.625 | –
17 | O=c1c2cnc(Nc3ccc4c(c3)CNCC43CC3)nc2c(Br)cn1-c1c(Cl)cccc1Cl [Compound P19, 8-bromo-6-(2,6-dichlorophenyl)-2-(spiro[2,3-dihydro-1H-isoquinoline-4,1′-cyclopropane]-7-ylamino)pyrido[4,3-d]pyrimidin-5-one] | 0.313 µM | 0.156 | –
18 | CN1Cc2cc(Nc3ncc4c(=O)n(-c5c(Cl)cccc5Cl)cc(Br)c4n3)ccc2C2(CC2)C1 [Compound P20, 8-bromo-6-(2,6-dichlorophenyl)-2-[(2-methylspiro[1,3-dihydroisoquinoline-4,1′-cyclopropane]-7-yl)amino]pyrido[4,3-d]pyrimidin-5-one] | 0.313 µM | 0.156 | –
19 | CN1CCN(c2ccc(Nc3ncc4c(=O)n(-c5c(Cl)cccc5Cl)cc(Br)c4n3)cc2)CC1 [Compound P21, 8-bromo-6-(2,6-dichlorophenyl)-2-[4-(4-methylpiperazin-1-yl)anilino]pyrido[4,3-d]pyrimidin-5-one] | 0.625 µM | 0.313 and 0.625 | –
20 | CN(C)C1CCc2ccc(Nc3ncc4c(=O)n(-c5c(Cl)cccc5Cl)cc(Br)c4n3)cc21 (centres unmarked) [Compound P22, 8-bromo-6-(2,6-dichlorophenyl)-2-[[3-(dimethylamino)indan-5-yl]amino]pyrido[4,3-d]pyrimidin-5-one] | 2.5 µM | 1.25 | –
21 | NC1CCc2ccc(Nc3ncc4c(=O)n(-c5c(Cl)cccc5Cl)cc(Br)c4n3)cc21 (centres unmarked) [Compound P23, 2-[(3-aminoindan-5-yl)amino]-8-bromo-6-(2,6-dichlorophenyl)pyrido[4,3-d]pyrimidin-5-one] | 5 µM | 2.5 | –
22 | O=c1c2cnc(Nc3ccc4c(c3)C(O)CC4)nc2c(Br)cn1-c1c(Cl)cccc1Cl (centres unmarked) [Compound P24, 8-bromo-6-(2,6-dichlorophenyl)-2-[(3-hydroxyindan-5-yl)amino]pyrido[4,3-d]pyrimidin-5-one] | 5 µM | 1.25 | –
23 | Cc1cccc(F)c1-n1cc(Br)c2nc(Nc3cnn(C4CCNCC4)c3)ncc2c1=O [Compound P25, 8-bromo-6-(2-fluoro-6-methyl-phenyl)-2-[[1-(4-piperidyl)pyrazol-4-yl]amino]pyrido[4,3-d]pyrimidin-5-one] | 5 µM | 0.625 | –
24 | Cc1cccc(F)c1-n1cc(Br)c2nc(Nc3cnn(C4CCN(C)CC4)c3)ncc2c1=O [Compound P26, 8-bromo-6-(2-fluoro-6-methyl-phenyl)-2-[[1-(1-methyl-4-piperidyl)pyrazol-4-yl]amino]pyrido[4,3-d]pyrimidin-5-one] | 5 µM | 0.625 | –
25 | Cc1cccc(C)c1-n1cc(Br)c2nc(Nc3cnn(C4CCN(C)CC4)c3)ncc2c1=O [Compound P27, 8-bromo-6-(2,6-dimethylphenyl)-2-[[1-(1-methyl-4-piperidyl)pyrazol-4-yl]amino]pyrido[4,3-d]pyrimidin-5-one] | 1.25 µM | 0.625 | –
